# Assay results from ChEMBL document CHEMBL4011637, “Synthesis of 8-Substituted Analogues of Cyclic ADP-4-Thioribose and Their Unexpected Identification as Ca2+-Mobilizing Full Agonists” (J Med Chem, 2017).
# Activity calls are given as the source filed them. The calls are words filed in the database; no cut-off is given here.
# Assays:
# [1] = biological target: Ryanodine receptor (Hemicentrotus pulcherrimus) (UniProt Q8TA74); experiment: (§1) Agonist activity at ryanodine receptor in Hemicentrotus pulcherrimus egg homogenate assessed as increase in intracellular calcium mobilization by Fluo-3 dye based fluorimetric assay; format: cell-based
# Ryanodine receptor = Ryanodine receptor (Hemicentrotus pulcherrimus, UniProt Q8TA74); experiment: as §1; format: cell-based
# Homo sapiens [2] = organism: Homo sapiens; experiment: Agonist activity at ryanodine receptor (unknown origin) in T cells assessed as increase in intracellular calcium mobilization by Fluo-3 dye based fluorimetric assay; format: cell-based
# [3] = Dissociation constant, pKa of the compound; format: physicochemical
# Homo sapiens [4] = organism: Homo sapiens; experiment: Agonist activity at ryanodine receptor (unknown origin) in neuronal cells assessed as increase in intracellular calcium mobilization by Fluo-3 dye based fluorimetric assay; format: cell-based
# [5] = biological target: Ryanodine receptor (Hemicentrotus pulcherrimus) (UniProt Q8TA74); experiment: Antagonist activity at ryanodine receptor in Hemicentrotus pulcherrimus egg homogenate assessed as decrease in intracellular calcium mobilization by Fluo-3 dye based fluorimetric assay; format: cell-based
SMILES,Activity [1],EC50 (Ryanodine receptor),Activity (Homo sapiens [2]),pKa [3],Activity (Homo sapiens [4]),inhibition [5]
Nc1c2ncn3c2nc[n+]1[C@@H]1O[C@H](COP(=O)([O-])OP(=O)(O)OC[C@H]2O[C@@H]3[C@H](O)[C@@H]2O)[C@@H](O)[C@H]1O,Dose-dependent effect,210 nM,Active,8.3,,
Nc1c2ncn3c2nc[n+]1[C@@H]1C[C@H](COP(=O)([O-])OP(=O)(O)OC[C@H]2O[C@@H]3[C@H](O)[C@@H]2O)[C@@H](O)[C@H]1O,,,inactive,9,Active,
Nc1nc2c(N)[n+]3cnc2n1[C@@H]1O[C@H](COP(=O)(O)OP(=O)([O-])OC[C@H]2S[C@@H]3[C@H](O)[C@@H]2O)[C@@H](O)[C@H]1O,,870 nM,,,,inactive
Nc1nc2c(N)[n+]3cnc2n1[C@@H]1O[C@H](COP(=O)([O-])OP(=O)(O)OC[C@H]2C[C@@H]3[C@H](O)[C@@H]2O)[C@@H](O)[C@H]1O,Active,,,,,
Nc1c2nc(Cl)n3c2nc[n+]1[C@@H]1C[C@H](COP(=O)(O)OP(=O)([O-])OC[C@H]2O[C@@H]3[C@H](O)[C@@H]2O)[C@@H](O)[C@H]1O,Active,,,,,
Nc1c2nc(Cl)n3c2nc[n+]1[C@@H]1S[C@H](COP(=O)([O-])OP(=O)(O)OC[C@H]2O[C@@H]3[C@H](O)[C@@H]2O)[C@@H](O)[C@H]1O,,12000 nM,,,,inactive
Nc1c2ncn3c2nc[n+]1[C@@H]1S[C@H](COP(=O)([O-])OP(=O)(O)OC[C@H]2O[C@@H]3[C@H](O)[C@@H]2O)[C@@H](O)[C@H]1O,,39 nM,Active,8,Active,
[N-]=[N+]=Nc1nc2c(N)[n+]3cnc2n1[C@@H]1O[C@H](COP(=O)(O)OP(=O)([O-])OC[C@H]2C[C@@H]3[C@H](O)[C@@H]2O)[C@@H](O)[C@H]1O,Active,,,,,
[N-]=[N+]=Nc1nc2c(N)[n+]3cnc2n1[C@@H]1O[C@H](COP(=O)(O)OP(=O)([O-])OC[C@H]2S[C@@H]3[C@H](O)[C@@H]2O)[C@@H](O)[C@H]1O,,37000 nM,,,,
